Results as given in patent publication US11065232B2, “Dihydrotetrabenazine for the treatment of anxiety and psychoses” (ADEPTIO PHARMACEUTICALS LIMITED, priority 2017, dated 2021).

Experiments:
Dopamine D2L = Dopamine D2L (Homo sapiens, UniProt P14416); assay: Receptor protein binding studies, Dopamine D2L
From the text: (§1) The four 3,11b trans-dihydrotetrabenazine isomers (+)-α, (−)-α, (+)-β and (−)-β were subjected to specific binding assays to test their ability to bind to the receptors and transporter proteins described below. The results are set out in Table 1

[1] = biological target: D1 (h) (antagonist radioligand) (Homo sapiens, UniProt P21728); assay: Receptor protein binding studies, D1
From the text: as §1

[2] = biological target: T1, alpha 1A (h) (antagonist radioligand) (Homo sapiens, UniProt P35348); assay: Receptor protein binding studies, alpha 1A
T1 sequence (P35348 1-466): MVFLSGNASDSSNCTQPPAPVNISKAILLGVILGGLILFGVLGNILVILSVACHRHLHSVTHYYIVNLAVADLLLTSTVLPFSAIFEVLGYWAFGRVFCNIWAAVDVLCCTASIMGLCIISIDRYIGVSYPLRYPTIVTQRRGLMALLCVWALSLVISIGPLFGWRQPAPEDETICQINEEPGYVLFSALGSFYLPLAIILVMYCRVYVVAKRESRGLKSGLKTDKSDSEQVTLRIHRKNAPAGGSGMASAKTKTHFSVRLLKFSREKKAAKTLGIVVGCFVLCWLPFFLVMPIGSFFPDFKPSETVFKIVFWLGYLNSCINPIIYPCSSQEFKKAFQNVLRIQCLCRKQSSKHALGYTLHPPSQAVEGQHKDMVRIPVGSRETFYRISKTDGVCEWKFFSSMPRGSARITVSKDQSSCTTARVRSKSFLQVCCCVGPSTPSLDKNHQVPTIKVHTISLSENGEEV
From the text: as §1

5-HT6 (h) = 5-HT6 (h) (Homo sapiens, UniProt P50406); assay: Receptor protein binding studies, 5-HT6
From the text: as §1

[3] = biological target: D5 (h) (antagonist radioligand) (Homo sapiens, UniProt P21918); assay: Receptor protein binding studies, D5
From the text: as §1

[4] = biological target: 5-HT2B (h) (agonist radioligand) (Homo sapiens, UniProt P41595); assay: Receptor protein binding studies, 5-HT2B
From the text: as §1

[5] = biological target: mu (MOP) (h) (agonist radioligand) (Homo sapiens, UniProt P35372); assay: Receptor protein binding studies, mu (MOP)
From the text: as §1

[6] = system: I2 (antagonist radioligand); assay: Receptor protein binding studies, I2
From the text: as §1

[7] = biological target: T2, alpha 2A (h) (antagonist radioligand) (Homo sapiens, UniProt P08913); assay: Receptor protein binding studies, alpha 2A
T2 sequence (P08913 1-465): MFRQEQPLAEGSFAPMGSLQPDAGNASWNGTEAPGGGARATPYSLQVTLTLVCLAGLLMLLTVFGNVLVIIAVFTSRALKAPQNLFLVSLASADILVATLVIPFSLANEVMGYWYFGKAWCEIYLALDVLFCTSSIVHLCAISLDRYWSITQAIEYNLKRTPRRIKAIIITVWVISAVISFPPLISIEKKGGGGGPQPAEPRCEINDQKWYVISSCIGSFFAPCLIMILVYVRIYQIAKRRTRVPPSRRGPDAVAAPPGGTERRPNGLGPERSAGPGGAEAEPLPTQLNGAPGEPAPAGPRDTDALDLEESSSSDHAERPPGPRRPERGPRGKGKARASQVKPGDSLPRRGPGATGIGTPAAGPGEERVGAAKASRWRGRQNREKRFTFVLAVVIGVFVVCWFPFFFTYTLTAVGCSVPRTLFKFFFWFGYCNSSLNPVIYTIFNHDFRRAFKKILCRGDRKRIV
From the text: as §1

[8] = biological target: T3, 5-HT2C (h) (agonist radioligand) (Homo sapiens, UniProt P28335); assay: Receptor protein binding studies, 5-HT2C
T3 sequence (P28335 33-458): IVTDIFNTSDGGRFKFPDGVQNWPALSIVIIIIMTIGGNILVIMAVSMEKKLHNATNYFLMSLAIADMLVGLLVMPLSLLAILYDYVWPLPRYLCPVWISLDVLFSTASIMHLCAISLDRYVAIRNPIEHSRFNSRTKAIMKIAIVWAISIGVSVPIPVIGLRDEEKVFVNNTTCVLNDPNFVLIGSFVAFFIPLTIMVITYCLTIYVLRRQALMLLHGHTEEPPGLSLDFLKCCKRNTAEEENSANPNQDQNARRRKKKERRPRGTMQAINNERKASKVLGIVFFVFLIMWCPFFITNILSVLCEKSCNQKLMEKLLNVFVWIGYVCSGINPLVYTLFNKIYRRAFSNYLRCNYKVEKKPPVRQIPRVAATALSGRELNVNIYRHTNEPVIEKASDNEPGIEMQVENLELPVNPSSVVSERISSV
From the text: as §1

[9] = biological target: T4, alpha 1D (h) (antagonist radioligand) (Homo sapiens, UniProt P25100); assay: Receptor protein binding studies, alpha 1D
T4 sequence (P25100 1-572): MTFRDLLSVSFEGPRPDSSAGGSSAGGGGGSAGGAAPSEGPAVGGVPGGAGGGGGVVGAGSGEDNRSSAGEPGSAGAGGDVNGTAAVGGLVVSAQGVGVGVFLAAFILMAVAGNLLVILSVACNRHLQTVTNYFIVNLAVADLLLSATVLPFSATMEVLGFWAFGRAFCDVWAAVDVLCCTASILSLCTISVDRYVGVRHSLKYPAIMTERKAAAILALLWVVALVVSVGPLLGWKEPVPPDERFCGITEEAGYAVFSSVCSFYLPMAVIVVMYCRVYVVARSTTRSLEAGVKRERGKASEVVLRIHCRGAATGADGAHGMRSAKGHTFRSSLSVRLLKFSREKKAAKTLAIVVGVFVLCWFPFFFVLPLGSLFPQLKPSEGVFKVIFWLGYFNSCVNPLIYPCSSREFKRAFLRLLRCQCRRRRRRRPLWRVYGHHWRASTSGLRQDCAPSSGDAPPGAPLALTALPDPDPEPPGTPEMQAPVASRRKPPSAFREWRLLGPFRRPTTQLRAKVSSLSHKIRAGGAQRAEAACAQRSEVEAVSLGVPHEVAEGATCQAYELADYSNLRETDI
From the text: as §1

[10] = biological target: D2S (h) (antagonist radioligand) (Homo sapiens, UniProt P14416); assay: Receptor protein binding studies, D2S
From the text: as §1

Chain of D1 (h) (antagonist radioligand) (P21728 whole entry): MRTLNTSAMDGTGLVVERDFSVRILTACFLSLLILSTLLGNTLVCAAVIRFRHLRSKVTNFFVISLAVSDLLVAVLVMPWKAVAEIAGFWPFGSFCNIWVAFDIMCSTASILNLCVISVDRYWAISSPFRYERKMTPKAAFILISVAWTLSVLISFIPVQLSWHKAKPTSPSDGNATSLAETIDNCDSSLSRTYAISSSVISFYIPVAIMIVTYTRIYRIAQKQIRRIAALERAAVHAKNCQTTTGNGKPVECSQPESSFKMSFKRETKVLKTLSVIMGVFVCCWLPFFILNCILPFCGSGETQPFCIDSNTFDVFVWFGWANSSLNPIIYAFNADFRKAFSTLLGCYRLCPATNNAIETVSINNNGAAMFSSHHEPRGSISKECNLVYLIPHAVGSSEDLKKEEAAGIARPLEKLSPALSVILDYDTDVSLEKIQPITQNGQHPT
Chain of Dopamine D2L (P14416 whole entry): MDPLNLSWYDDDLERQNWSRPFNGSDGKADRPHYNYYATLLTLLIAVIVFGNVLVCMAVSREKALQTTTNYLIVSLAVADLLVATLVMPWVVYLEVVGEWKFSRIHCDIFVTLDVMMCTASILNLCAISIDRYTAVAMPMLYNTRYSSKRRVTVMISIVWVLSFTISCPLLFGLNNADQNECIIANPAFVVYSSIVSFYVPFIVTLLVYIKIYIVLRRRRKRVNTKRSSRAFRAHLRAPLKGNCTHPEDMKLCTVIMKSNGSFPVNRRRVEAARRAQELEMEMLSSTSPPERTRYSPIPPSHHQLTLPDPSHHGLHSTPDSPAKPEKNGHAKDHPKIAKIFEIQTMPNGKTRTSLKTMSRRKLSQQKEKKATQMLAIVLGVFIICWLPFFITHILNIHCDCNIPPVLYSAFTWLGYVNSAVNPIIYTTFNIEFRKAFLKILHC
Chain of 5-HT6 (h) (P50406 whole entry): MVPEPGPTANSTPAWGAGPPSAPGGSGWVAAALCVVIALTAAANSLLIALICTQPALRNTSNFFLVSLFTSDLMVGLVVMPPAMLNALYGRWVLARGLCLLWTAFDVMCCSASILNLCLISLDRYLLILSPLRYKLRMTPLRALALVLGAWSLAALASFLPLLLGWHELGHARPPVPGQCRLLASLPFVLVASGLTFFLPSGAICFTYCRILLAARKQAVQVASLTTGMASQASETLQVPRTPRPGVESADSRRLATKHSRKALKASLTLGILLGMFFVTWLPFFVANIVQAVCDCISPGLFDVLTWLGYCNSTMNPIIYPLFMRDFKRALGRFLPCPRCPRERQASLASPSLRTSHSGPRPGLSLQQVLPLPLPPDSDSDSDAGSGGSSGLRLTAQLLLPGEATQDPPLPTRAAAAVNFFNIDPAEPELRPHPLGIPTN
Chain of D2S (h) (antagonist radioligand) (P14416 1-414 isoform P14416-2): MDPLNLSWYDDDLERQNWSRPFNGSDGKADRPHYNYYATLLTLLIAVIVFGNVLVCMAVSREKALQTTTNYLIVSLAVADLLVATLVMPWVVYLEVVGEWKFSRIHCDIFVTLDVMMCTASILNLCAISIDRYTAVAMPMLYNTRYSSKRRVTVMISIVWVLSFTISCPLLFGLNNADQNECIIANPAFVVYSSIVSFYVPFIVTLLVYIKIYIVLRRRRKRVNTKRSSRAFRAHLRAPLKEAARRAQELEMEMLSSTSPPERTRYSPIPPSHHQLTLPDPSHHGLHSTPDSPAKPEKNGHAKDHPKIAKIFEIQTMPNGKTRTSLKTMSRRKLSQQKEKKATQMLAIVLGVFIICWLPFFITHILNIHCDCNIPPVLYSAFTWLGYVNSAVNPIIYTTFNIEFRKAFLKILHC
Chain of D5 (h) (antagonist radioligand) (P21918 whole entry): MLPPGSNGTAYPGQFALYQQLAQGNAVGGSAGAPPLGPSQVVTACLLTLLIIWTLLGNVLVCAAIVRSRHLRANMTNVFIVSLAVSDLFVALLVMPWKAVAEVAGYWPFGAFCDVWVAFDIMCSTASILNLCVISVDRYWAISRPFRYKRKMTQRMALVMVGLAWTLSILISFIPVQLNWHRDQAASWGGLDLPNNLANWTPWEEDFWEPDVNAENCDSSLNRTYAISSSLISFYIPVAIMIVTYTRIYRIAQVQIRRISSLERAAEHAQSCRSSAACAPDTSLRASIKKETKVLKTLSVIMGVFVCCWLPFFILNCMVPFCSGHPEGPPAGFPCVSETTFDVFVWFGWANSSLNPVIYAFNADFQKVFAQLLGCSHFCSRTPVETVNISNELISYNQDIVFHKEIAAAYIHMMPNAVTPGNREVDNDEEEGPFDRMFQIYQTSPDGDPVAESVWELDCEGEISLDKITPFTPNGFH
Chain of mu (MOP) (h) (agonist radioligand) (P35372 whole entry): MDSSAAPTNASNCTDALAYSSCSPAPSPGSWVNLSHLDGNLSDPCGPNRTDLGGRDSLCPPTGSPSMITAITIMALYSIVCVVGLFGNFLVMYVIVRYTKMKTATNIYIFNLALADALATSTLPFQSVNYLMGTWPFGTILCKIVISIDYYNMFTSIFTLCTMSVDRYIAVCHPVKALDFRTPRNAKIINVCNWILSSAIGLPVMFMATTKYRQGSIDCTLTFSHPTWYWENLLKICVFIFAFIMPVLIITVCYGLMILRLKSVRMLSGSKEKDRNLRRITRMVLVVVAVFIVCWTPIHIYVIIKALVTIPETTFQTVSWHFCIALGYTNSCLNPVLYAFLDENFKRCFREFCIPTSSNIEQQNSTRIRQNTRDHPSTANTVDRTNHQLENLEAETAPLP
Chain of 5-HT2B (h) (agonist radioligand) (P41595 whole entry): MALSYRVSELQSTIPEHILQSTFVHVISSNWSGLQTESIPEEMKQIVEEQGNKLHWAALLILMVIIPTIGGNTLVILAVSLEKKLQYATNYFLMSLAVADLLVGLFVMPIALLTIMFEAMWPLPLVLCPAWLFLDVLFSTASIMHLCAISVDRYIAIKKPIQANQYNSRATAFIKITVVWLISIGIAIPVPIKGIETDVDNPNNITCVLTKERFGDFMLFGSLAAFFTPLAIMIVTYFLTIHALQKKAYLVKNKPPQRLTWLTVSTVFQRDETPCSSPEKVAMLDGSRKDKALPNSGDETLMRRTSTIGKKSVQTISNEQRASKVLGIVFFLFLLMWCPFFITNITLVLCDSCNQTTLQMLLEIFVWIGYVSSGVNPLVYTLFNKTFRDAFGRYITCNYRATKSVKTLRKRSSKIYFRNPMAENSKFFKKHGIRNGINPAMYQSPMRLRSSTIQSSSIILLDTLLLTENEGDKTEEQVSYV

(+)-β-dihydrotetrabenazine [(+)-Beta]
% Inhibition of specific binding (Dopamine D2L; CONC 1.0E−05 (unit not given)): 18%
% Inhibition of specific binding (Dopamine D2L; CONC 1.0E−06 (unit not given)): 1%
% Inhibition of specific binding ([1]; CONC 1.0E−05 (unit not given)): 8%
% Inhibition of specific binding ([1]; CONC 1.0E−06 (unit not given)): 0%
% Inhibition of specific binding ([2]; CONC 1.0E−05 (unit not given)): 33%
% Inhibition of specific binding ([2]; CONC 1.0E−06 (unit not given)): 2%
% Inhibition of specific binding (5-HT6 (h); CONC 1.0E−05 (unit not given)): 6%
% Inhibition of specific binding (5-HT6 (h); CONC 1.0E−06 (unit not given)): 15%
% Inhibition of specific binding ([3]; CONC 1.0E−05 (unit not given)): −5%
% Inhibition of specific binding ([3]; CONC 1.0E−06 (unit not given)): −8%
% Inhibition of specific binding ([4]; CONC 1.0E−05 (unit not given)): −7%
% Inhibition of specific binding ([4]; CONC 1.0E−06 (unit not given)): −2%
% Inhibition of specific binding ([5]; CONC 1.0E−05 (unit not given)): 2%
% Inhibition of specific binding ([5]; CONC 1.0E−06 (unit not given)): 7%
% Inhibition of specific binding ([6]; CONC 1.0E−05 (unit not given)): 11%
% Inhibition of specific binding ([6]; CONC 1.0E−06 (unit not given)): 6%
% Inhibition of specific binding ([7]; CONC 1.0E−05 (unit not given)): 11%
% Inhibition of specific binding ([7]; CONC 1.0E−06 (unit not given)): −1%
% Inhibition of specific binding ([8]; CONC 1.0E−05 (unit not given)): −5%
% Inhibition of specific binding ([8]; CONC 1.0E−06 (unit not given)): 2%
% Inhibition of specific binding ([9]; CONC 1.0E−05 (unit not given)): 20%
% Inhibition of specific binding ([9]; CONC 1.0E−06 (unit not given)): 18%
% Inhibition of specific binding ([10]; CONC 1.0E−05 (unit not given)): 7%
% Inhibition of specific binding ([10]; CONC 1.0E−06 (unit not given)): −8%

(−)-α-dihydrotetrabenazine [(−)-Alpha]
% Inhibition of specific binding (Dopamine D2L; CONC 1.0E−05 (unit not given)): 68%
% Inhibition of specific binding (Dopamine D2L; CONC 1.0E−06 (unit not given)): 27%
% Inhibition of specific binding ([1]; CONC 1.0E−05 (unit not given)): 45%
% Inhibition of specific binding ([1]; CONC 1.0E−06 (unit not given)): 5%
% Inhibition of specific binding ([2]; CONC 1.0E−05 (unit not given)): 6%
% Inhibition of specific binding ([2]; CONC 1.0E−06 (unit not given)): 1%
% Inhibition of specific binding (5-HT6 (h); CONC 1.0E−05 (unit not given)): 29%
% Inhibition of specific binding (5-HT6 (h); CONC 1.0E−06 (unit not given)): 6%
% Inhibition of specific binding ([3]; CONC 1.0E−05 (unit not given)): 23%
% Inhibition of specific binding ([3]; CONC 1.0E−06 (unit not given)): −3%
% Inhibition of specific binding ([4]; CONC 1.0E−05 (unit not given)): 92%
% Inhibition of specific binding ([4]; CONC 1.0E−06 (unit not given)): 55%
% Inhibition of specific binding ([5]; CONC 1.0E−05 (unit not given)): 2%
% Inhibition of specific binding ([5]; CONC 1.0E−06 (unit not given)): 11%
% Inhibition of specific binding ([6]; CONC 1.0E−05 (unit not given)): 12%
% Inhibition of specific binding ([6]; CONC 1.0E−06 (unit not given)): 13%
% Inhibition of specific binding ([7]; CONC 1.0E−05 (unit not given)): 65%
% Inhibition of specific binding ([7]; CONC 1.0E−06 (unit not given)): 30%
% Inhibition of specific binding ([8]; CONC 1.0E−05 (unit not given)): 16%
% Inhibition of specific binding ([8]; CONC 1.0E−06 (unit not given)): 0%
% Inhibition of specific binding ([9]; CONC 1.0E−05 (unit not given)): 25%
% Inhibition of specific binding ([9]; CONC 1.0E−06 (unit not given)): 13%
% Inhibition of specific binding ([10]; CONC 1.0E−05 (unit not given)): 73%
% Inhibition of specific binding ([10]; CONC 1.0E−06 (unit not given)): 22%

(+)-α-dihydrotetrabenazine [(+)-Alpha]
% Inhibition of specific binding (Dopamine D2L; CONC 1.0E−05 (unit not given)): 14%
% Inhibition of specific binding (Dopamine D2L; CONC 1.0E−06 (unit not given)): 10%
% Inhibition of specific binding ([1]; CONC 1.0E−05 (unit not given)): −2%
% Inhibition of specific binding ([1]; CONC 1.0E−06 (unit not given)): 0%
% Inhibition of specific binding ([2]; CONC 1.0E−05 (unit not given)): 12%
% Inhibition of specific binding ([2]; CONC 1.0E−06 (unit not given)): 7%
% Inhibition of specific binding (5-HT6 (h); CONC 1.0E−05 (unit not given)): 35%
% Inhibition of specific binding (5-HT6 (h); CONC 1.0E−06 (unit not given)): −1%
% Inhibition of specific binding ([3]; CONC 1.0E−05 (unit not given)): −8%
% Inhibition of specific binding ([3]; CONC 1.0E−06 (unit not given)): −7%
% Inhibition of specific binding ([4]; CONC 1.0E−05 (unit not given)): 0%
% Inhibition of specific binding ([4]; CONC 1.0E−06 (unit not given)): −4%
% Inhibition of specific binding ([5]; CONC 1.0E−05 (unit not given)): 5%
% Inhibition of specific binding ([5]; CONC 1.0E−06 (unit not given)): 0%
% Inhibition of specific binding ([6]; CONC 1.0E−05 (unit not given)): 20%
% Inhibition of specific binding ([6]; CONC 1.0E−06 (unit not given)): 1%
% Inhibition of specific binding ([7]; CONC 1.0E−05 (unit not given)): 7%
% Inhibition of specific binding ([7]; CONC 1.0E−06 (unit not given)): 5%
% Inhibition of specific binding ([8]; CONC 1.0E−05 (unit not given)): 3%
% Inhibition of specific binding ([8]; CONC 1.0E−06 (unit not given)): −8%
% Inhibition of specific binding ([9]; CONC 1.0E−05 (unit not given)): −10%
% Inhibition of specific binding ([9]; CONC 1.0E−06 (unit not given)): 15%
% Inhibition of specific binding ([10]; CONC 1.0E−05 (unit not given)): 7%
% Inhibition of specific binding ([10]; CONC 1.0E−06 (unit not given)): −1%
